Reference: ChEMBL document CHEMBL5360618, “PepScaf: Harnessing Machine Learning with In Vitro Selection toward De Novo Macrocyclic Peptides against IL-17C/IL-17RE Interaction” (J Med Chem, 2023)
Positions of bridges follow the written chain, without caps; N, C: chain ends. Residues, ends and D or L forms follow the SMILES beside them.

What follows are compounds tested against T1, IL17-RE-IL-17C (Homo sapiens, UniProt Q8NFR9+Q9P0M4) (assay: Inhibition of IL-17C/IL-17RE interaction (unknown origin) incubated for 1.5 hrs by ELISA method).
T1 sequence (Q9P0M4 whole entry): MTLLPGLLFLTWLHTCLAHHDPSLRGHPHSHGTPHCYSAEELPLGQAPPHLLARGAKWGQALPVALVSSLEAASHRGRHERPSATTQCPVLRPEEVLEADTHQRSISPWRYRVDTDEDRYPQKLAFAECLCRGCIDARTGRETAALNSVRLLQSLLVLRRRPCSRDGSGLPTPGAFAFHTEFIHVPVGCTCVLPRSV
T1 sequence (Q8NFR9 whole entry): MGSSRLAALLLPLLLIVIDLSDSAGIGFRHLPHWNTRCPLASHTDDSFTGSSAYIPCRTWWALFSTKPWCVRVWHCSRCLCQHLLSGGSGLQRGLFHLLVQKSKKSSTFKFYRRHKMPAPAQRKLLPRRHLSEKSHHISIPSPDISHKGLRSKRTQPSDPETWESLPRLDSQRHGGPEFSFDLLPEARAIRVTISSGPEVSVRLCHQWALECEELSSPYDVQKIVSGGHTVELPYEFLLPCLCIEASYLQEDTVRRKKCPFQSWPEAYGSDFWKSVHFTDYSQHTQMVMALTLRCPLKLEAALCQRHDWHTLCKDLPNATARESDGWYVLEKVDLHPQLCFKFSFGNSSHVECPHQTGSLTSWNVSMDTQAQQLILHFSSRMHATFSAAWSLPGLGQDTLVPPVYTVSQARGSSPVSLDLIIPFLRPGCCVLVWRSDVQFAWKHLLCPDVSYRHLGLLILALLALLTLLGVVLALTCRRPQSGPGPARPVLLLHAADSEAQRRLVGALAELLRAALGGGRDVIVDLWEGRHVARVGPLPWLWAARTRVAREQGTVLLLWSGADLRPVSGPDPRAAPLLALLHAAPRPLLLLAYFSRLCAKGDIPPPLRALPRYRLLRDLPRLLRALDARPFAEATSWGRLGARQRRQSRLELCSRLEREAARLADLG
Assay type: protein-complex assay

Row | IC50 [nM] | Compound
1 | > 30000 | CC[C@H](C)[C@@H]1NC(=O)[C@H](CCCNC(=N)N)NC(=O)[C@H](Cc2ccc(O)cc2)NC(=O)[C@H](C)NC(=O)[C@H](Cc2c[nH]cn2)NC(=O)[C@H](Cc2c[nH]cn2)NC(=O)[C@H](Cc2ccc(O)cc2)NC(=O)CSC[C@@H](C(=O)NCC(N)=O)NC(=O)CNC(=O)[C@H](CC(C)C)NC(=O)[C@H](CCC(=O)O)NC(=O)CNC(=O)[C@H](Cc2ccc(O)cc2)NC(=O)[C@H](CC(C)C)NC1=O ({CH2CO}-YHHAYRILYGELGCG-NH2; thioether N-14)
2 | 171 | CC[C@H](C)[C@@H]1NC(=O)[C@H](CCCNC(=N)N)NC(=O)[C@H](Cc2ccc(O)cc2)NC(=O)[C@H](Cc2ccccc2)NC(=O)[C@H](Cc2c[nH]cn2)NC(=O)[C@H](Cc2c[nH]cn2)NC(=O)[C@H](Cc2ccc(O)cc2)NC(=O)CSC[C@@H](C(=O)NCC(N)=O)NC(=O)CNC(=O)[C@H](CC(C)C)NC(=O)[C@H](CCC(=O)O)NC(=O)CNC(=O)[C@H](Cc2ccc(O)cc2)NC(=O)[C@H](CC(C)C)NC1=O ({CH2CO}-YHHFYRILYGELGCG-NH2; thioether N-14)
3 | 6850 | CC[C@H](C)[C@@H]1NC(=O)[C@H](CCCNC(=N)N)NC(=O)[C@H](Cc2ccc(O)cc2)NC(=O)[C@H](Cc2c[nH]cn2)NC(=O)[C@H](Cc2c[nH]cn2)NC(=O)[C@H](Cc2c[nH]cn2)NC(=O)[C@H](Cc2ccc(O)cc2)NC(=O)CSC[C@@H](C(=O)NCC(N)=O)NC(=O)CNC(=O)[C@H](CC(C)C)NC(=O)[C@H](CCC(=O)O)NC(=O)CNC(=O)[C@H](Cc2ccc(O)cc2)NC(=O)[C@H](CC(C)C)NC1=O ({CH2CO}-YHHHYRILYGELGCG-NH2; thioether N-14)
4 | > 30000 | CC[C@H](C)[C@@H]1NC(=O)[C@H](CCCNC(=N)N)NC(=O)[C@H](C)NC(=O)[C@H](Cc2ccc(O)cc2)NC(=O)[C@H](Cc2c[nH]cn2)NC(=O)[C@H](Cc2c[nH]cn2)NC(=O)[C@H](Cc2ccc(O)cc2)NC(=O)CSC[C@@H](C(=O)NCC(N)=O)NC(=O)CNC(=O)[C@H](CC(C)C)NC(=O)[C@H](CCC(=O)O)NC(=O)CNC(=O)[C@H](Cc2ccc(O)cc2)NC(=O)[C@H](CC(C)C)NC1=O ({CH2CO}-YHHYARILYGELGCG-NH2; thioether N-14)
5 | 3970 | CC[C@H](C)[C@@H]1NC(=O)[C@H](CCCNC(=N)N)NC(=O)[C@H](Cc2ccccc2)NC(=O)[C@H](Cc2ccc(O)cc2)NC(=O)[C@H](Cc2c[nH]cn2)NC(=O)[C@H](Cc2c[nH]cn2)NC(=O)[C@H](Cc2ccc(O)cc2)NC(=O)CSC[C@@H](C(=O)NCC(N)=O)NC(=O)CNC(=O)[C@H](CC(C)C)NC(=O)[C@H](CCC(=O)O)NC(=O)CNC(=O)[C@H](Cc2ccc(O)cc2)NC(=O)[C@H](CC(C)C)NC1=O ({CH2CO}-YHHYFRILYGELGCG-NH2; thioether N-14)
6 | > 30000 | CC[C@H](C)[C@@H]1NC(=O)[C@H](CCCNC(=N)N)NC(=O)[C@H](Cc2c[nH]cn2)NC(=O)[C@H](Cc2ccc(O)cc2)NC(=O)[C@H](Cc2c[nH]cn2)NC(=O)[C@H](Cc2c[nH]cn2)NC(=O)[C@H](Cc2ccc(O)cc2)NC(=O)CSC[C@@H](C(=O)NCC(N)=O)NC(=O)CNC(=O)[C@H](CC(C)C)NC(=O)[C@H](CCC(=O)O)NC(=O)CNC(=O)[C@H](Cc2ccc(O)cc2)NC(=O)[C@H](CC(C)C)NC1=O ({CH2CO}-YHHYHRILYGELGCG-NH2; thioether N-14)
7 | 400 | CC[C@H](C)[C@@H]1NC(=O)[C@H](C)NC(=O)[C@H](Cc2ccc(O)cc2)NC(=O)[C@H](Cc2ccc(O)cc2)NC(=O)[C@H](Cc2c[nH]cn2)NC(=O)[C@H](Cc2c[nH]cn2)NC(=O)[C@H](Cc2ccc(O)cc2)NC(=O)CSC[C@@H](C(=O)NCC(N)=O)NC(=O)CNC(=O)[C@H](CC(C)C)NC(=O)[C@H](CCC(=O)O)NC(=O)CNC(=O)[C@H](Cc2ccc(O)cc2)NC(=O)[C@H](CC(C)C)NC1=O ({CH2CO}-YHHYYAILYGELGCG-NH2; thioether N-14)
8 | > 30000 | CC[C@H](C)[C@@H]1NC(=O)CNC(=O)[C@H](Cc2ccc(O)cc2)NC(=O)[C@H](Cc2ccc(O)cc2)NC(=O)[C@H](Cc2c[nH]cn2)NC(=O)[C@H](Cc2c[nH]cn2)NC(=O)[C@H](Cc2ccc(O)cc2)NC(=O)CSC[C@@H](C(=O)NCC(N)=O)NC(=O)CNC(=O)[C@H](CC(C)C)NC(=O)[C@H](CCC(=O)O)NC(=O)CNC(=O)[C@H](Cc2ccc(O)cc2)NC(=O)[C@H](CC(C)C)NC1=O ({CH2CO}-YHHYYGILYGELGCG-NH2; thioether N-14)
9 | 1670 | CC(C)C[C@@H]1NC(=O)[C@H](CCC(=O)O)NC(=O)CNC(=O)[C@H](Cc2ccc(O)cc2)NC(=O)[C@H](CC(C)C)NC(=O)[C@H](Cc2ccccc2)NC(=O)[C@H](CCCNC(=N)N)NC(=O)[C@H](Cc2ccc(O)cc2)NC(=O)[C@H](Cc2ccc(O)cc2)NC(=O)[C@H](Cc2c[nH]cn2)NC(=O)[C@H](Cc2c[nH]cn2)NC(=O)[C@H](Cc2ccc(O)cc2)NC(=O)CSC[C@@H](C(=O)NCC(N)=O)NC(=O)CNC1=O ({CH2CO}-YHHYYRFLYGELGCG-NH2; thioether N-14)
10 | > 30000 | CC[C@H](C)[C@@H]1NC(=O)[C@H](CCCNC(=N)N)NC(=O)[C@H](Cc2ccc(O)cc2)NC(=O)[C@H](Cc2ccc(O)cc2)NC(=O)[C@H](Cc2c[nH]cn2)NC(=O)[C@H](Cc2c[nH]cn2)NC(=O)[C@H](Cc2ccc(O)cc2)NC(=O)CSC[C@@H](C(=O)NCC(N)=O)NC(=O)CNC(=O)[C@H](CC(C)C)NC(=O)[C@H](CCC(=O)O)NC(=O)CNC(=O)[C@H](Cc2ccc(O)cc2)NC(=O)[C@H](C)NC1=O ({CH2CO}-YHHYYRIAYGELGCG-NH2; thioether N-14)
11 | > 30000 | CC[C@H](C)[C@@H]1NC(=O)[C@H](CCCNC(=N)N)NC(=O)[C@H](Cc2ccc(O)cc2)NC(=O)[C@H](Cc2ccc(O)cc2)NC(=O)[C@H](Cc2c[nH]cn2)NC(=O)[C@H](Cc2c[nH]cn2)NC(=O)[C@H](Cc2ccc(O)cc2)NC(=O)CSC[C@@H](C(=O)NCC(N)=O)NC(=O)CNC(=O)[C@H](CC(C)C)NC(=O)[C@H](CCC(=O)O)NC(=O)CNC(=O)[C@H](C)NC(=O)[C@H](CC(C)C)NC1=O ({CH2CO}-YHHYYRILAGELGCG-NH2; thioether N-14)
12 | 1230 | CC[C@H](C)[C@@H]1NC(=O)[C@H](CCCNC(=N)N)NC(=O)[C@H](Cc2ccc(O)cc2)NC(=O)[C@H](Cc2ccc(O)cc2)NC(=O)[C@H](Cc2c[nH]cn2)NC(=O)[C@H](Cc2c[nH]cn2)NC(=O)[C@H](Cc2ccc(O)cc2)NC(=O)CSC[C@@H](C(=O)NCC(N)=O)NC(=O)CNC(=O)[C@H](CC(C)C)NC(=O)[C@H](CCC(=O)O)NC(=O)CNC(=O)[C@H](Cc2ccccc2)NC(=O)[C@H](CC(C)C)NC1=O ({CH2CO}-YHHYYRILFGELGCG-NH2; thioether N-14)
13 | > 30000 | CC[C@H](C)[C@@H]1NC(=O)[C@H](CCCNC(=N)N)NC(=O)[C@H](Cc2ccc(O)cc2)NC(=O)[C@H](Cc2ccc(O)cc2)NC(=O)[C@H](Cc2c[nH]cn2)NC(=O)[C@H](Cc2c[nH]cn2)NC(=O)[C@H](Cc2ccc(O)cc2)NC(=O)CSC[C@@H](C(=O)NCC(N)=O)NC(=O)CNC(=O)[C@H](CC(C)C)NC(=O)[C@H](CCC(=O)O)NC(=O)CNC(=O)[C@H](Cc2c[nH]cn2)NC(=O)[C@H](CC(C)C)NC1=O ({CH2CO}-YHHYYRILHGELGCG-NH2; thioether N-14)
14 | 1360 | CC[C@H](C)[C@@H]1NC(=O)[C@H](CCCNC(=N)N)NC(=O)[C@H](Cc2ccc(O)cc2)NC(=O)[C@H](Cc2ccc(O)cc2)NC(=O)[C@H](Cc2c[nH]cn2)NC(=O)[C@H](Cc2c[nH]cn2)NC(=O)[C@H](Cc2ccc(O)cc2)NC(=O)CSC[C@@H](C(=O)NCC(N)=O)NC(=O)CNC(=O)[C@H](CC(C)C)NC(=O)[C@H](CCC(=O)O)NC(=O)[C@H](C)NC(=O)[C@H](Cc2ccc(O)cc2)NC(=O)[C@H](CC(C)C)NC1=O ({CH2CO}-YHHYYRILYAELGCG-NH2; thioether N-14)
15 | 180 | CC[C@H](C)[C@@H]1NC(=O)[C@H](CCCNC(=N)N)NC(=O)[C@H](Cc2ccc(O)cc2)NC(=O)[C@H](Cc2ccc(O)cc2)NC(=O)[C@H](Cc2c[nH]cn2)NC(=O)[C@H](Cc2c[nH]cn2)NC(=O)[C@H](Cc2ccc(O)cc2)NC(=O)CSC[C@@H](C(=O)NCC(N)=O)NC(=O)CNC(=O)[C@H](CC(C)C)NC(=O)[C@H](C)NC(=O)CNC(=O)[C@H](Cc2ccc(O)cc2)NC(=O)[C@H](CC(C)C)NC1=O ({CH2CO}-YHHYYRILYGALGCG-NH2; thioether N-14)
16 | > 30000 | CC[C@H](C)[C@@H]1NC(=O)[C@H](CCCNC(=N)N)NC(=O)[C@H](Cc2ccc(O)cc2)NC(=O)[C@H](Cc2ccc(O)cc2)NC(=O)[C@H](Cc2c[nH]cn2)NC(=O)[C@H](Cc2c[nH]cn2)NC(=O)[C@H](Cc2ccc(O)cc2)NC(=O)CSC[C@@H](C(=O)NCC(N)=O)NC(=O)CNC(=O)[C@H](C)NC(=O)[C@H](CCC(=O)O)NC(=O)CNC(=O)[C@H](Cc2ccc(O)cc2)NC(=O)[C@H](CC(C)C)NC1=O ({CH2CO}-YHHYYRILYGEAGCG-NH2; thioether N-14)
